From US20100209960A1, “METHOD FOR MEASURING MITOCHONDRIAL MEMBRANE POTENTIAL IN VERTEBRATE CELLS” (MERCK SHARP & DOHME CORP., priority 2007, published 2010)

Assays:
[1] = system: mitochondrial membrane potential in CHO—K1 cells; test: cells; assay type: cell-based; conditions: for EC50: Cricetulus griseus, read-out: EC50 (decrease of mitochondrial membrane potential)
Method: 24 hours before assay, CHO—K1 cells were seeded in a 384 well plate at 75,000 cells per well in 50 μl growth medium (Iscove's Modified Dulbecco's Medium Invitrogen, 12440-046, 10% Fetal Bovine Serum (Invitrogen, 26140-095), 1× HT Supplement (Invitrogen, 11067-030) 1× Penicillin-Streptomycin solution (Hyclone, SV30010) 2 mM Glutamine (Hyclone, SH30034.01). Cells were then incubated overnight at 37° C., 5% carbon dioxide. When commencing the assay, 50 μl of assay buffer (50 mM Hepes, pH 7.4 150 mM KCL, 1600 mM NaCl, 25 mM D-(+)-glucose) was added to cells. […] 10 μl of 9 μM fluorescent dye TMRM (in 10% DMSO) was added and cells are incubated for 20 minutes at room temperature. 10 μl of 16 mM Brilliant Black BN prepared in D-PBS was added to yield a 1.6 mM final concentration of Brilliant Black BN. The fluorescence was immediately read on a Molecular Devices Analyst HT fluorescent plate reader, using an excitation wavelength of 530 nm and measuring the emission at 580 nm.
24 hours before assay, CHO—K1 cells were seeded in a 384 well plate at 75,000 cells per well in 50 μl growth medium (Iscove's Modified Dulbecco's Medium, lnvitrogen, 12440-046, 10% Fetal Bovine Serum (Invitrogen, 26140-095), 1× HT Supplement (Invitrogen, 11067-030) 1× Penicillin-Streptomycin solution (Hyclone, SV30010) 2 mM Glutamine (Hyclone, SH30034.01). Cells were then incubated overnight at 37° C., 5% carbon dioxide. When commencing the assay, 50 μl of assay buffer (50 mM Hepes, pH 7.4 150 mM KCL, 1600 mM NaCl, 25 mM D-(+)-glucose) was added to cells. 1 μl of the various amounts of the cation ionophore, H+—K+ antiporter, nigericin, was added and the cells are then incubated for 30 minutes at 37° C., 5% carbon dioxide. 10 μl of 9 μM fluorescent dye TMRM (in 10% DMSO) was added and cells are incubated for 20 minutes at room temperature. 10 μl of 16 mM Brilliant Black BN prepared in D-PBS was added yield a 1.6 mM final concentration of Brilliant Black BN. The fluorescence was immediately read on a Molecular Devices Analyst HT fluorescent plate reader, using an excitation wavelength of 530 nm and measuring the emission at 580 nm.

[2] = system: mitochondrial membrane potential in CHO—K1 cells; test: Homogeneous TMRM/Brilliant Black BN mitochondrial membrane potential assay, 1536 well plate; assay type: cell-based; conditions: Cricetulus griseus, 0.5 h, 30 minutes incubation, TMRM fluorescence, read-out: EC50 (decrease of mitochondrial membrane potential)
Method: 24 hours before assay, CHO—K1 cells were seeded in a 1536 well plate at 10,000 cells per well in 4 μl growth medium (Iscove's Modified Dulbecco's Medium Invitrogen, 12440-046, 10% Fetal Bovine Serum (Invitrogen, 26140-095), 1×HT Supplement (Invitrogen, 11067-030) 1× Penicillin-Streptomycin solution (Hyclone, SV30010) 2 mM Glutamine (Hyclone, SH30034.01). Cells were then incubated overnight at 37° C., 5% carbon dioxide. When commencing the assay, 4 μl of assay buffer (50 mM Hepes, pH 7.4 150 mM KCL, 1600 mM NaCl, 25 mM D-(+)-glucose) was added to cells. 80 nl of various amounts of the mitochondrial uncoupling compound, CCCP, was added and the cells were then incubated for 30 minutes at 37° C., 5% carbon dioxide. 0.8 μl of 6 μM fluorescent dye TMRM (in 20% DMSO) was added and cells were incubated for 20 minutes at room temperature. 0.8 μl of 16 mM Brilliant Black BN prepared in D-PBS was added yield a 1.6 mM final concentration of Brilliant Black BN. The fluorescence was immediately read on a Molecular Devices Tetra fluorescent plate reader, using an excitation wavelength of 530 nm and measuring the emission at 580 nm while employing a custom filter (Omega Optical) whose transmission wavelength was 580 nm±10 nm.

Work on `O=[N+]([O-])c1ccc(O)c([N+](=O)[O-])c1` [2,4-DNP, 2,4-dinitrophenol] yielded an EC50 ([1]; CHO-K1, 0.5 h) of 5000 nM.
With `N#CC(C#N)=NNc1cccc(Cl)c1` [CCCP, carbonylcyanide m-chlorophenylhydrazone] the EC50 [2] was 180 nM and the EC50 ([1]; 0.5 h, adherent CHO—K1 cells, 384 well plate, 30 minutes incubation, TMRM fluorescence) was 250 nM.
For `CO[C@@H]1C[C@@H](C[C@H]2CC[C@H](C)[C@H]([C@@H](C)C(=O)O)O2)O[C@]2(O[C@](C)([C@H]3CC[C@@](C)([C@@H]4O[C@@H]([C@H]5O[C@@](O)(CO)[C@H](C)C[C@@H]5C)C[C@@H]4C)O3)C[C@H]2C)[C@@H]1C` [Nigericin, nigericin], the “Effect at greater levels of nigericin” value [1] was “toxicity and membrane depolarization” and the “Effect on mitochondrial membrane potential” value ([1]; adherent CHO—K1 cells, 384 well plate, increasing amounts of nigericin) was “caused hyperpolarization of the mitochondrial membrane”.
